From US20240009104A1, “PROCESS FOR EXTRACTION AND HEMI-SYNTHESIS OF PYRANOANTHOCYANINS AND SKINCARE COSMETIC FORMULATIONS CONTAINING THEM” (UNIVERSIDADE DO PORTO, priority 2021, published 2024)

Legend:
[1] = Determination of solar protection factor (SPF), spectrophotometric, Mansur equation; type: physicochemical; settings: for SPF: 1.0 mg in 5 mL ethanol, absorbance 290-320 nm, Mansur equation
Protocol: Sample preparation 1.0 mg of all samples was weighed, transferred to a 5 mL volumetric flask, diluted to volume with ethanol, followed by ultra-sonication for 5 min. The absorption spectra of samples in solution were obtained in the range of 290 to 450 nm using 1 cm quartz cell, and ethanol as a blank. The absorption data were obtained in the range of 290 to 320, every 5 nm, and 3 determinations were made at each point, followed by the application of Mansur equation.
Where CF (correction factor) is 10, EE (A) is erythmogenic effect of radiation with wavelength λ, Abs is Spectrophotometric absorbance values at wavelength λ. The obtained absorbance values are multiplied with EE (λ)×1 (λ) and then their summation is taken and multiplied with correction factor to obtain the SPF values.

[2] = test system: P. aeruginosa ATCC 27853; experiment: MIC/MBC broth microdilution, P. aeruginosa; type: cell-based; settings: Pseudomonas aeruginosa, ATCC27853; P. aeruginosa ATCC 27853, 24 h, 0.5 to 512 μg/mL
Protocol: (§1) Compounds/extracts were tested against the following bacterial strains: Pseudomonas aeruginosa ATCC 27853, Staphylococcus aureus ATCC 29213, Staphylococcus epidermidis ATCC 14990, Streptococcus pyogenes ATCC 19615, Micrococcus luteus ATCC 4698. Prior to each in vitro bioassay, fresh cultures were obtained for each strain using the appropriate medium and incubation conditions as follows. Staphylococcus spp. and P. aeruginosa were grown on Mueller-Hinton (MH) agar (Liofilchemsrl, Italy) for 24 h at 37° C., while M. luteus was grown in Tryptic Soy agar (TSA, Liofilchem srl, Italy) for 24 h at 30° C. and S. pyogenes on TSA with 5% defibrinated sheep blood (Thermo Fisher Scientific, USA) for 24 h at 37° C. in an atmosphere of 5% CO2.
(§2) Minimum inhibitory concentrations (MICs) of compounds/extracts were determined using a broth microdilution technique, following the recommendations of the Clinical and Laboratory Standards Institute. Briefly, fresh colonies of each strain were used to prepare the respective inocula with an optical density at 600 nm (OD600) equal to 0.1 (approximately 1^10^8 CFU/mL). For all strains, cation-adjusted Mueller-Hinton broth (MHB2, Sigma-Aldrich, USA) was used, but in the case of S. pyogenes, MBH2 was previously supplemented with 2.5% lysed horse blood (Thermo Fisher Scientific, USA). In 96-well, U-bottom, microplates, each compound was serially diluted in the respective medium from stock solutions (10 mg/mL in DMSO) to achieve in-test concentrations ranging from 0.5 to 512 μg/mL. Wells were inoculated so that the final concentration in eachwas of 5×10^5 CFU/mL. The microplates were incubated at 37° C. for 24 h. The MIC was defined as the lowest concentration of compound inhibiting the bacterial growth visible to the naked eye.

[3] = test system: S. aureus ATCC 29213; experiment: MIC/MBC broth microdilution, S. aureus; type: cell-based; settings: Staphylococcus aureus, ATCC29213; S. aureus ATCC 29213, 24 h, 0.5 to 512 μg/mL
Protocol: as §1, §2

[4] = test system: M. luteus ATCC 4698; experiment: MIC/MBC broth microdilution, M. luteus; type: cell-based; settings: Micrococcus luteus, ATCC4698; M. luteus ATCC 4698, 24 h, 0.5 to 512 μg/mL
Protocol: as §1, §2

[5] = test system: S. epidermidis ATCC 14990; experiment: MIC/MBC broth microdilution, S. epidermidis; type: cell-based; settings: Staphylococcus epidermidis, ATCC14990; S. epidermidis ATCC 14990, 24 h, 0.5 to 512 μg/mL
Protocol: as §1, §2

[6] = test system: S. pyogenes ATCC 19615; experiment: MIC/MBC broth microdilution, S. pyogenes; type: cell-based; settings: Streptococcus pyogenes, ATCC19615; S. pyogenes ATCC 19615, 24 h, 0.5 to 512 μg/mL
Protocol: as §1, §2

[7] = Cytotoxicity to human fibroblasts and keratinocytes, MTT assay; type: cell-based; settings: HaCat, HFF-1 and Heka cells, 0.78-100 μM
Protocol: For this purpose, immortalized human foreskin fibroblasts HFF-1 were grown as monolayers from passage number 9-18 and maintained at 37° C. in an atmosphere of 5% CO2. For routine maintenance, the cells were cultured in 22.1 cm^2 plates as monolayers and maintained in Dulbecco's Modified Eagle Medium (DMEM, from Cell Lines Service), supplemented with 10% fetal bovine serum (FBS, from CLS) and 1% of antibiotic/antimycotic solution (100 units/mL of penicillin, 10 mg/mL of streptomycin and 0.25 mg/mL of amphotericin B from Sigma-Aldrich, St. Louis, MO, United States). The medium was replaced every two days and the cells were harvested every two weeks.
The cytotoxicity of the anthocyanins derivatives to HFF-1, Heka, and HaCat cells was evaluated using the standard MTT assay. Briefly, cells were seeded at a density of 5×10^4 cells or 1.5×10^4 cells/well onto 96-well plates and incubated at 37° C. in a 5% CO2 atmosphere. Cells were allowed to grow for 24 h, and serially diluted solutions of the different compounds (0.78-100 μM) were added to the wells. Then, cells were incubated for 48 h at 37° C., after which wells were washed once with phosphate buffered saline solution (PBS, Sigma-Aldrich, St. Louis, MO, United States), followed by addition of 0.45 mg/mL of MTT solution to each well. Crystals were allowed to form for 2 h. […] Absorbance was read at 570 nm.

Row | Compound | SPF [1] | MIC [2] [µg/mL] | MIC [3] [µg/mL] | MIC [4] [µg/mL] | MIC [5] [µg/mL] | MIC [6] [µg/mL] | UV protection (0.2 mg/mL) ([1]; 0.2 mg/mL) | IC50 at 48 h [7] [µM]
1 | CN(C)c1ccc(C2=Cc3c(OC4OC(CO)C(O)C(O)C4O)c(-c4ccc(O)c(O)c4)[o+]c4cc(O)cc(c34)O2)cc1 (centres unmarked) [V-C, Pyranocyanidin-3-glucoside-(4-dimethylamino)-cinnamyl] | 13 ± 0.04 |  |  |  |  |  |  | 
2 | CC1=Cc2c(OC3OC(CO)C(O)C(O)C3O)c(-c3ccc(O)c(O)c3)[o+]c3cc(O)cc(c23)O1 (centres unmarked) [III-A, Methylpyranocyanidin-3-glucoside] | 18.53 ± 0.15 | > 512 | > 512 | > 512 | > 512 | > 512 |  | 
3 | COc1cc(-c2[o+]c3cc(O)cc4c3c(c2OC2OC(CO)C(O)C(O)C2O)C=C(/C=C/c2c(O)cc(O)c3c2OC(c2ccc(O)c(O)c2)C(O)C3)O4)cc(OC)c1O (centres unmarked) [VI-B, Vinylpyranomalvidin-3-O-glucoside-cathechin] | 8.35 ± 0.06 |  |  |  |  |  |  | 
4 | 4-(Dimethylamino)-cinnamyl-10-vinylene-pyranomalvidin-3-glucoside [VII-B] | 15.02 ± 0.07 |  |  |  |  |  |  | 
5 | CN(C)c1ccc(/C=C/C=C/C2=Cc3c(OC4OC(CO)C(O)C(O)C4O)c(-c4ccc(O)c(O)c4)[o+]c4cc(O)cc(c34)O2)cc1 (centres unmarked) [VIII-A, 4-(Dimethylamino)-cinnamyl-10-butadienylidene-pyranocyanidin-3-O-glucoside] | 14.78 ± 0.02 |  |  |  |  |  |  | 
6 | COc1cc(-c2[o+]c3cc(O)cc4c3c(c2OC2OC(CO)C(O)C(O)C2O)C=C(C(=O)O)O4)cc(OC)c1O (centres unmarked) [II-B, Carboxypyranomalvidin-3-glucoside] | 13.92 ± 0.04 | > 512 | > 512 | > 512 | > 512 | > 512 | 13.92 ± 0.04 | > 100
7 | Malvidin-3-O-glucoside-4-vinylcatechol [V-B] | 10.02 ± 0.00 |  |  |  |  |  |  | 
8 | O=C(O)C1=Cc2c(OC3OC(CO)C(O)C(O)C3O)c(-c3ccc(O)c(O)c3)[o+]c3cc(O)cc(c23)O1 (centres unmarked) [II-A, Carboxypyranocyanidin-3-glucoside] | 20.71 ± 0.18 | > 512 | > 512 | > 512 | > 512 | > 512 |  | 
9 | Cyanidin-3-O-glucoside-4-vinylcatechol [V-A] | 24.00 ± 0.01 |  |  |  |  |  |  | 
